As usually defined, the IC50 is the concentration that gives 50% inhibition. Read a low IC50 as inhibition by little substance.

Where a name gives a salt, the structure may show the parent alone. Read-outs that look alike come from different tables or passages of the source.

The test addresses T1, human renal renin (Homo sapiens, UniProt P00797).
T1 construct: human renal renin, free from acid proteolytic activity; from tissue
T1 sequence (P00797 67-406): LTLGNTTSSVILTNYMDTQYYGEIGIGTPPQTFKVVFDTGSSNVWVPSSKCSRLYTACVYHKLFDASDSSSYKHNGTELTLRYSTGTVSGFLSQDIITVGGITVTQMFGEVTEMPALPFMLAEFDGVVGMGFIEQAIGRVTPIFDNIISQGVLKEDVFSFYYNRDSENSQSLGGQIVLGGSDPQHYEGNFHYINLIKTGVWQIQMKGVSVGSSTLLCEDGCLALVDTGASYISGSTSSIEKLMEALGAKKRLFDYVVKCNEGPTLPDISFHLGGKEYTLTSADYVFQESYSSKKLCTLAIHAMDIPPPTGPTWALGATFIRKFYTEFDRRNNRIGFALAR
Nature of the test: Inhibition of human renal renin in vitro; angiotensin I formed measured by radioimmunoassay. Format: biochemical.

As to `CC(C)C[C@H](O)[C@H](O)[C@H](CC1CCCCC1)NC(=O)[C@H](Cc1c[nH]cn1)NC(=O)[C@H](Cc1ccccc1)NC(=O)C1CCN(C(=O)OCc2ccccc2)CC1` [Example 67, Cbz-Isonipectoyl-Phe-His Amide of 2(S)-Amino-l-cyclohexyl-3(R),4(S)-dihydroxy-6-methylheptane], the IC50 turned out to be 0.8 nM. The same measure, in the same setting: as for `CC(C)C[C@H](O)[C@H](O)[C@H](CC1CCCCC1)NC(=O)[C@H](Cc1c[nH]cn1)NC(=O)[C@H](Cc1ccccc1)NC(=O)C1CCNCC1` [Example 68, H-Isonipectoyl-Phe-His Amide of 2(S)-Amino-l-cyclohexyl-3(R),4(S)-dihydroxy-6-methylheptane Diacetic Acid Salt], the figure is 1 nM; as for `CC(C)C[C@H](O)[C@H](O)[C@H](CC1CCCCC1)NC(=O)[C@H](Cc1c[nH]cn1)NC(=O)[C@H](Cc1ccccc1)NC(=O)[C@@H](C)NC(=O)OCc1ccccc1` [Example 69, Cbz-D-Ala-Phe-His Amide of 2(S)-Amino-l-cyclohexyl-3(R), 4(S)-dihydroxy-6-methylheptane], 0.81 nM. Regarding `CC(C)C[C@H](O)[C@H](O)[C@H](CC1CCCCC1)NC(=O)[C@H](Cc1c[nH]cn1)NC(=O)[C@H](Cc1ccccc1)NC(=O)[C@@H](C)N` [Example 70, H-D-Ala-Phe-His Amide of 2(S)-Amino-l-cyclohexyl-3(R), 4(S)-dihydroxy-6-methylheptane Diacetic Acid Salt], the half-inhibitory concentration (IC50) was 2.5 nM. Compound `CC(C)C[C@H](O)[C@H](O)[C@H](CC1CCCCC1)NC(=O)[C@H](Cc1c[nH]cn1)NC(=O)[C@H](Cc1ccccc1)NC(=O)CC(C)(C)NC(=O)OCc1ccccc1` [Example 74, Cbz-[(β,β-di-Me)-β-Ala]-Phe-His Amide of 2(S)-Amino-1-cyclohexyl-3(R),4(S)-dihydroxy-6-methylheptane] had an IC50 of 0.7 nM.

Take `CC(C)C[C@H](O)[C@H](O)[C@H](CC1CCCCC1)NC(=O)[C@H](Cc1c[nH]cn1)NC(=O)[C@H](Cc1ccccc1)NC(=O)CC(C)(C)N` [Example 75, H-[(β,β-di-Me)-β-Ala]-Phe-His Amide of 2(S)-Amino-1-cyclohexyl-3(R),4(S)-dihydroxy-6-methylheptane Diacetic Acid Salt]: inhibition was half-maximal at 0.4 nM (IC50). In turn, `CC(C)C[C@H](O)[C@H](O)[C@H](CC1CCCCC1)NC(=O)[C@H](Cc1c[nH]cn1)NC(=O)[C@H](Cc1ccccc1)NC(=O)[C@@H]1CCCN1C(=O)OCc1ccccc1` [Example 76, Cbz-Pro-Phe-His Amide of 2(S)-Amino-l-cyclohexyl-3(R), 4(S)-dihydroxy-6-methyl- heptane] displayed an IC50 of 0.5 nM. As to `CC(C)C[C@H](O)[C@H](O)[C@H](CC1CCCCC1)NC(=O)[C@H](Cc1c[nH]cn1)NC(=O)[C@H](Cc1ccccc1)NC(=O)[C@@H]1CCCN1` [Example 77, H-Pro-Phe-His Amide of 2(S)-Amino-l-cyclohexyl-3(R), 4(S)-dihydroxy-6-methylheptane Acetic Acid Salt], 0.98 nM corresponded to half-maximal inhibition (IC50).

Compound `CC(C)C[C@H](O)[C@H](O)[C@H](CC1CCCCC1)NC(=O)[C@H](Cc1c[nH]cn1)NC(=O)[C@H](Cc1ccccc1)NC(=O)OCc1ccccc1` [Example 83, Cbz-Phe-His Amide of 2(S)-Amino-l-cyclohexyl-3(R), 4(S)-dihydroxy-6-methylheptane] registered an IC50 of 0.6 nM. On the same count and under the same terms, the value for `CC(C)C[C@H](O)[C@H](O)[C@H](CC1CCCCC1)NC(=O)[C@H](Cc1c[nH]cn1)NC(=O)[C@@H](N)Cc1ccccc1` [Example 84, Phe-His Amide of 2(S)-Amino-l-cyclohexyl-3(R),4(S)-dihydroxy-6-methylheptane] was 10 nM; that for `CC(C)C[C@H](O)[C@H](O)[C@H](CC1CCCCC1)NC(=O)[C@H](Cc1c[nH]cn1)NC(=O)[C@H](Cc1ccccc1)NC(=O)C(C)(C)N` [Example 85, alpha-Aminoisobutyryl-Phe-His Amide of 2(S)-Amino-1-cyclohexyl-3(R),4(S)-dihydroxy-6-methylheptane] was 0.4 nM.

For the compound `CC(C)C[C@H](O)[C@H](O)[C@H](CC1CCCCC1)NC(=O)[C@H](Cc1c[nH]cn1)NC(=O)[C@H](Cc1ccccc1)NC(=O)c1cnccn1` [Example 87, (Pyrazin-2-yl-carbonyl)-Phe-His Amide of 2(S)-Amino-1-cyclohexyl-3(R),4(S)-dihydroxy-6-methylheptane], 0.55 nM corresponded to half-maximal inhibition (IC50). In turn, `CC(C)C[C@H](NC(=O)[C@H](Cc1ccccc1)NC(=O)Cc1c[nH]cn1)C(=O)N[C@@H](CC1CCCCC1)[C@@H](O)[C@@H](O)CC(C)C` [Example 88, (Imidazol-4-yl-acetyl)-Phe-Leu Amide of 2(S)-Amino-1-cyclohexyl-3(R),4(S)-dihydroxy-6-methylheptane] showed an IC50 of 0.6 nM. For `CC(C)C[C@H](O)[C@H](O)[C@H](CC1CCCCC1)NC(=O)[C@H](Cc1c[nH]cn1)NC(=O)[C@H](Cc1ccccc1)NC(=O)c1ccc[nH]1` [Example 89, (Pyrrol-2-yl-carbonyl)-Phe-His Amide of 2(S)-Amino-1-cyclohexyl-3(R),4(S)-dihydroxy-6-methylheptane], inhibition was half-maximal at 1 nM (IC50).

`C=CCOC(=O)N[C@@H](Cc1ccccc1)C(=O)N[C@@H](CC(C)C)C(=O)N[C@@H](CC1CCCCC1)[C@@H](O)[C@@H](O)CC(C)C` [Example 90, Allyloxycarbonyl-Phe-Leu Amide of 2(S)-Amino-l-cyclohexyl-3(R),4(S)-dihydroxy-6-methylheptaine] registered a half-maximal inhibitory concentration (IC50) of 0.4 nM. Compound `CC(C)C[C@H](NC(=O)[C@H](Cc1ccccc1)NC(=O)OCCCOC(=O)CNC(=O)OCc1ccccc1)C(=O)N[C@@H](CC1CCCCC1)[C@@H](O)[C@@H](O)CC(C)C` [Example 92, Cbz-Gly Ester of the Resultant Compound of Example 91 (at 3-Hydroxypropyloxy Group)] gave a half-inhibitory concentration (IC50) of 0.5 nM. `CC(C)C[C@H](NC(=O)[C@H](Cc1ccccc1)NC(=O)OCCCOC(=O)CN)C(=O)N[C@@H](CC1CCCCC1)[C@@H](O)[C@@H](O)CC(C)C` [Example 93, H-Gly-Ester of the Resultant Compound of Example 91 (at 3-Hydroxypropyloxy Group)] displayed an IC50 of 0.55 nM.

`CC(C)C[C@H](NC(=O)[C@H](Cc1ccccc1)NC(=O)OCC(O)CO)C(=O)N[C@@H](CC1CCCCC1)[C@@H](O)[C@@H](O)CC(C)C` (stereo partly drawn) [Example 97, 2(R,S),3-Dihydroxypropyloxycarbonyl-Phe-Leu Amide of 2(S) -Amino-1-cyclohexyl-3(R),4(S)-dihydroxy-6-methylheptane] yielded an IC50 of 0.3 nM. Same read-out and setting: the value for `CC(C)C[C@H](O)[C@H](O)[C@H](CC1CCCCC1)NC(=O)[C@H](Cc1c[nH]cn1)NC(=O)[C@H](Cc1ccccc1)NC(=O)CO` [Example 103, Hydroxyacetyl-Phe-His Amide of 2(S)-Amino-l-cyclohexyl-3(R),4(S)-dihydroxy-6-methylheptane] was 1 nM; that for `CC(C)C[C@H](O)[C@H](O)[C@H](CC1CCCCC1)NC(=O)[C@H](Cc1c[nH]cn1)NC(=O)[C@H](CCc1ccccc1)NC(=O)C(C)C` [Example 108, Isobutyryl-Homo-Phe-His Amide of 2(S)-Amino-l-cyclohexyl-3(R),4(S)-dihydroxy-6-methylheptane] was 0.55 nM. Take `CC(C)C[C@H](O)[C@H](O)[C@H](CC1CCCCC1)NC(=O)[C@H](Cc1c[nH]cn1)NC(=O)[C@H](Cc1ccccc1)OC(=O)N1CCOCC1` [Example 111, 2(S)-[(4-Morpholinyl)carbonyl]oxy-3-phenylpropionyl-His Amide of 2(S)-Amino-l-cyclohexyl-3(R),4(S)-dihydroxy-6-methylheptane]: the midpoint of inhibition, the IC50, lay at 0.5 nM. Compound `CC(C)C[C@H](O)[C@H](O)[C@H](CC1CCCCC1)NC(=O)[C@H](Cc1cnc[nH]1)NC(=O)[C@H](Cc1ccccc1)NC(=O)N1CCOCC1` [Example 118, [(4-Morpholinyl)carbonyl]-phe-His Amide of 2(S)-Amino-1-cyclohexyl-3(R),4(S)-dihydroxy-6-methylheptane] came in with a half-maximal inhibitory concentration (IC50) of 0.5 nM. With `CC(C)C[C@H](O)[C@H](O)[C@H](CC1CCCCC1)NC(=O)[C@H](Cc1c[nH]cn1)NC(=O)[C@H](Cc1ccccc1)NC(=O)N1CCNCC1` [Example 124, [(1-Piperazinyl)carbonyl]-Phe-His Amide of 2(S)-Amino-1-cyclohexyl-3(R),4(S)-dihydroxy-6-methylheptane Bis-Acetic Acid Salt], where the note is “human renal renin free from acid proteolytic activity, renin substrate human angiotensinogen, 37° C., pH 6.0”, inhibition was half-maximal at 0.65 nM (IC50). As to `COc1ccc(C[C@H](NC(=O)CCCCCN)C(=O)N[C@@H](Cc2c[nH]cn2)C(=O)N[C@@H](CC2CCCCC2)[C@@H](O)[C@@H](O)CC(C)C)cc1` [Example 173, 6-Aminohexanoyl-(4-methoxy)Phe-His Amide of (2S, 3R, 4S)-2-Amino-1-cyclohexyl-3,4-dihydroxy-6-methylheptane Diacetate Salt], the half-inhibitory concentration (IC50) was determined as 0.9 nM.

As for `CC(C)C[C@H](O)[C@H](O)[C@H](CC1CCCCC1)NC(=O)[C@H](Cc1c[nH]cn1)NC(=O)C(NC(=O)N1CCOCC1)C(C)(C)c1ccccc1` (stereo partly drawn) [Example 178, 2(R,S)-[[(4-Morpholinyl)carbonyl]amino]-3,3-dimethyl-3-phenylpropionyl-His Amide of 2(S)-Amino-l-cyclohexyl-3(R),4(S)-dihydroxy-6-methylheptane], the IC50 was determined as 2 nM. For `COc1ccc(C[C@H](NC(=O)C2CCNCC2)C(=O)N[C@@H](Cc2c[nH]cn2)C(=O)N[C@@H](CC2CCCCC2)[C@@H](O)[C@@H](O)CC(C)C)cc1` [Example 179, H-Isonipecotyl-(4-OCH3)Phe-His Amide of 2(S)-Amino-1-cyclohexyl-3(R),4(S)-dihydroxy-6-methylheptane Diacetic Acid Salt], 1 nM corresponded to half-maximal inhibition (IC50).

Values taken from patent publication US5032577A, “Peptidylaminodiols” (Abbott Laboratories, priority 1987, dated 1991).
